# US20080261291A1 (priority 2004, published 2008)
# System: hairy scalp of men with premature alopecia
# Settings: 0.5% in excipient, 0.5 to 1 ml on the head scalp, one week
# Procedure: It is wanted to evaluate the genin of Calocarpum, (Chrysophyllum or Lucuma) as obtained of the example 6 according to this invention, as capillary rubefacient agent for which six affected gentlemen of premature alopecia are tried, to witch are requested to subject themselves to one weeks of test, which consists on being applied from 0.5 to 1 ml of the diluted products in test in the affected area of the head scalp in the clean skin. The two men of the group #1, receives the mixture of genin of Calocarpum, in a preparation consisting on the product as obtained of the example 6, to 0.5% in an excipient. The excipient composition for 100 g is: water 20 g, propyleneglycol 25 g, sunflower oil 54.5 g. The two men of the group #2, receives the same composition of the previous excipient and resorcinol to 0.5%. The two men of the group #3, receives the before mentioned excipient alone. The following questionnaire is registered and the pertinent observations of the test are made.
# Age; sex; since when they present the alopecia; duration of the applied treatment; 1.—Was the treatment irritating: a) it was not irritating, b) light, c) moderate, d) high, e) severe. 2.—Irritation type: a) hyperaemia (heat), b) inflammation, c) vesicatión (it produces blisters) 3.—keratolytic (desquamation production): a) without effect, b) light, c) moderate, d) extensive. […]
compound,measurement,value
Oc1cccc(O)c1 [resorcinol],keratolysis (desquamation production),moderate keratolysis
